Laboratory results as given in patent US9120812B2, “Pyrimidooxazocine derivatives as mTOR-inhibitors” (SANOFI, priority 2012, dated 2015).

Key:
[1] = target: mTOR (human recombinant aa mTOR 1360-2549) (Homo sapiens (Human), UniProt P42345); experiment: mTOR enzymatic test by TR-FRET (phosphorylation of GFP-4EBP1); format: biochemical
In short: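 After a 30 min room-temperature kinase reaction, EDTA (10 mM final) and Tb-labelled phospho-Thr46 antibody (2 nM final) were added and incubated 60 min. Energy transfer from Tb to phosphorylated GFP-4EBP1 was read at 340 nm excitation, emissions 490/520 nm. Values derive from the 520/490 fluorescence ratio.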

PI3Kα (p110α/p85α) = PI3Kα (p110α/p85α) (Homo sapiens (Human), UniProt P42336); experiment: PI3Kα enzymatic test by measuring the consumption of ATP; format: biochemical
In short: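 ATP consumption read out by KinaseGlo luminescence after a 90 min reaction of 1.7 μg/ml PI3Kα (p110α/p85α) with 2 μM ATP and 50 μM PIP2, buffered at pH 7.5 (Tris, 10 mM MgCl2, 1 mM EGTA, 0.03% Chaps, 1 mM DTT). Threefold dilution series over ≥10 000-fold range yield IC50.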

U87MG tumour cells = experiment: Test of in vitro proliferation of U87MG tumour cells; format: cell-based; settings: Homo sapiens, U-87 MG, 72 h, U87MG cells, 72 hours; read-out: U87 Cell Proliferation IC50
Procedure: Model 4: Test of in vitro Proliferation of U87MG Tumour Cells.
The cell growth is determined with the reagent CellTiter 96 AQueous One Solution Cell Proliferation Assay from Promega (Cat. No. G3581).

Akt-pS473 in U87MG cells = settings: Homo sapiens, U-87 MG, read-out: U87 Akt-pS473 % Inhibition or IC50, nM (IC50), U87MG cells

Sequence of PI3Kα (p110α/p85α) (P42336 whole entry): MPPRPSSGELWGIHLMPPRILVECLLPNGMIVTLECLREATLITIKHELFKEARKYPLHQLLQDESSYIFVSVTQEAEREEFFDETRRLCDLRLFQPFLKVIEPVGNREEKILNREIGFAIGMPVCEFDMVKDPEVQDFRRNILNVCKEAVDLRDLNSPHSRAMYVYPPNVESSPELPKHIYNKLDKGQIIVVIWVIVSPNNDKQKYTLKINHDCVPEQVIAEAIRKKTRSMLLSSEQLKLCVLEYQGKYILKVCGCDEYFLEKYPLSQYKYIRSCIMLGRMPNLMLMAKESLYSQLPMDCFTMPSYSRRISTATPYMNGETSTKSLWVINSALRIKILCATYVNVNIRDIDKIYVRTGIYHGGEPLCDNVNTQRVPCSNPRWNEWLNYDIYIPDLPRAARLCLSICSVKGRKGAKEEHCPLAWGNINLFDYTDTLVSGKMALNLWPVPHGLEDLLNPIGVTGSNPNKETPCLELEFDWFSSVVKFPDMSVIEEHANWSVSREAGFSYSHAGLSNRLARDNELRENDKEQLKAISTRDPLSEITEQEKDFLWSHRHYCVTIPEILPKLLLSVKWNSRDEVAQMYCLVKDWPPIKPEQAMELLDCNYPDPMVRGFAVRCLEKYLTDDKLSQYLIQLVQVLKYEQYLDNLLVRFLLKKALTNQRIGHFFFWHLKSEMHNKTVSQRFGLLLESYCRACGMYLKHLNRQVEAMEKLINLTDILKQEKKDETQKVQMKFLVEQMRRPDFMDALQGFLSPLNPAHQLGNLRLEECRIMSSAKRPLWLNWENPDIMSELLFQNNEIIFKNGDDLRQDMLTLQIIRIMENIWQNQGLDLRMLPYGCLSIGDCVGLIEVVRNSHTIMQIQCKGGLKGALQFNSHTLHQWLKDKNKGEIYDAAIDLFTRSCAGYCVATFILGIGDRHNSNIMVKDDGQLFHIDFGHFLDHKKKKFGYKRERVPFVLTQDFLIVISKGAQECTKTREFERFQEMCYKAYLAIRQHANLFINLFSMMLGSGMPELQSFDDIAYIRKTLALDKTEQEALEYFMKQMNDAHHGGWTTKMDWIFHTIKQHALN
Sequence of PI3Kα (p110α/p85α) (P27986 whole entry partner): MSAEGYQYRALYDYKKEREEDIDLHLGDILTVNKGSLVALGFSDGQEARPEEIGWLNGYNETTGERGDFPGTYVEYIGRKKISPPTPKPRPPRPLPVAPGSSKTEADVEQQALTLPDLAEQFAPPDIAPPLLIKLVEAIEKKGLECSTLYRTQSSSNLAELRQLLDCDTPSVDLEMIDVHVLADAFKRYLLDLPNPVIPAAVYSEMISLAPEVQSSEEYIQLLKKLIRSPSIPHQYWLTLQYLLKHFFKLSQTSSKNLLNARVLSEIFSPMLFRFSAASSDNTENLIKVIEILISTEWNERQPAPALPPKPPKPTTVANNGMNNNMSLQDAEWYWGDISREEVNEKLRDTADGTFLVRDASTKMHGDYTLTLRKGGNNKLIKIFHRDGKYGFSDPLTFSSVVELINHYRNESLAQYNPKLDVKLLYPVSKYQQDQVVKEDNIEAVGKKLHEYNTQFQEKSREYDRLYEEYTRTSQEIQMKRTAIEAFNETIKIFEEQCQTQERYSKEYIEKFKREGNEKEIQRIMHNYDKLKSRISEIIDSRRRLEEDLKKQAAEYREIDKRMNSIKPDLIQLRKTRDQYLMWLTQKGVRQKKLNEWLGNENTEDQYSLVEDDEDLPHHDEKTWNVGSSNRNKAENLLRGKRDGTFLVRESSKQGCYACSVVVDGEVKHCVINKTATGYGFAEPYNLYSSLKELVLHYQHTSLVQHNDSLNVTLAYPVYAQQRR
Sequence of mTOR (human recombinant aa mTOR 1360-2549) (P42345 1360-2549): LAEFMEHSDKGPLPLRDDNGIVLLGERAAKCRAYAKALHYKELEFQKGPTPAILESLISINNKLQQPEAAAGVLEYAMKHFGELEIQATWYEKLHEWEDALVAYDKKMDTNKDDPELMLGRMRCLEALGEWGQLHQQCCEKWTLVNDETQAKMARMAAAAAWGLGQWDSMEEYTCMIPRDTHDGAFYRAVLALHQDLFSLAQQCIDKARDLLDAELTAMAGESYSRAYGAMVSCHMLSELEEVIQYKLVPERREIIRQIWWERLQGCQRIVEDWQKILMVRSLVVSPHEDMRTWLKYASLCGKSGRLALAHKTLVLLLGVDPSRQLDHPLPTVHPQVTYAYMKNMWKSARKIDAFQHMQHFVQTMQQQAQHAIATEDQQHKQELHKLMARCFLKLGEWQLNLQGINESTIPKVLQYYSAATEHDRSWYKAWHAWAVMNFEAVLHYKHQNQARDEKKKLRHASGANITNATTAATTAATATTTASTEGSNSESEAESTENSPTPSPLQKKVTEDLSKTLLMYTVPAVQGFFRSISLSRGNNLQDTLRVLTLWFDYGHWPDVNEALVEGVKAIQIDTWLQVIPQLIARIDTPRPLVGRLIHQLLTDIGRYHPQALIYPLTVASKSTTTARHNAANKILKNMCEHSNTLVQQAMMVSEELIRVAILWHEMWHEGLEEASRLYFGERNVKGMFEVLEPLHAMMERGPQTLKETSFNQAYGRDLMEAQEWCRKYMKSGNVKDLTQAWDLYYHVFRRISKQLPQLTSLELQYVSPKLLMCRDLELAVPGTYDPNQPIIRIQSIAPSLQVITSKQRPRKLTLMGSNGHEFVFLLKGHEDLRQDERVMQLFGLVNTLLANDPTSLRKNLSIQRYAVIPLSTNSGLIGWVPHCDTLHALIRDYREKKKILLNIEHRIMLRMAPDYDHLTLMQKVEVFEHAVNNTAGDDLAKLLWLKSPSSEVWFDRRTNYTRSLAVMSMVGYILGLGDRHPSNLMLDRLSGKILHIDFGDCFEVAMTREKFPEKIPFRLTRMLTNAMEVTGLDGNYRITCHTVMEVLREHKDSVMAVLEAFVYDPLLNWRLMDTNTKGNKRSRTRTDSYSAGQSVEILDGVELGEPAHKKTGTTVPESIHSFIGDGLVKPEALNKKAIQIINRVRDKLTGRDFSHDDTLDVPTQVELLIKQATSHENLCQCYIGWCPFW

Structure (SMILES) | IC50 [1] [µM] | PI3Ka IC50 (PI3Kα (p110α/p85α)) [µM] | IC50 (U87MG tumour cells) [µM] | IC50 (Akt-pS473 in U87MG cells) [nM]
Cc1cc(NC(=O)Nc2ccc(-c3nc(N4C5CCC4COC5)nc4c3C(=O)N(C)CC(C)(C)O4)cc2F)ccn1 [Example 59, 1-{2-Fluoro-4-[6,8,8-trimethyl-2-(3-oxa-8-azabicyclo[3.2.1]oct-8-yl)-5-oxo-5,6,7,8-tetrahydro-9-oxa-1,3,6-triazabenzocyclohepten-4-yl]phenyl}-3-(2-methylpyridin-4-yl)urea] | 0.067 | 4.2 | 0.042 | 36
CCN1CC(C)(C)Oc2nc(N3CC4CCC(C3)O4)nc(-c3ccc(NC(=O)O[C@H](C)CO)c(F)c3)c2C1=O [Example 62, {4-[6-Ethyl-8,8-dimethyl-2-(8-oxa-3-azabicyclo[3.2.1]oct-3-yl)-5-oxo-5,6,7,8-tetrahydro-9-oxa-1,3,6-triazabenzocyclohepten-4-yl]-2-fluorophenyl}carbamic acid (R)-2-hydroxy-1-methylethyl ester] | 0.667 | >10 | > 10 | > 1000
CCN1CC(C)(C)Oc2nc(N3C4CCC3COC4)nc(-c3ccc(NC(=O)Nc4ccccn4)cc3)c2C1=O [Example 63, 1-{4-[6-Ethyl-8,8-dimethyl-2-(3-oxa-8-azabicyclo[3.2.1]oct-8-yl)-5-oxo-5,6,7,8-tetrahydro-9-oxa-1,3,6-triazabenzocyclohepten-4-yl]phenyl}-3-pyridin-2-ylurea] | 0.031 | >10 | 0.19 | 31
CCN1CC(C)(C)Oc2nc(N3CC4CCC(C3)O4)nc(-c3ccc(NC(=O)Nc4ccc(N(C)C)cn4)cc3)c2C1=O [Example 64, 1-(5-Dimethylaminopyridin-2-yl)-3-{4-[6-ethyl-8,8-dimethyl-2-(8-oxa-3-azabicyclo[3.2.1]oct-3-yl)-5-oxo-5,6,7,8-tetrahydro-9-oxa-1,3,6-triazabenzocyclohepten-4-yl]phenyl}urea] | 0.024 | >10 | 0.27 | 37
CCN1CC(C)(C)Oc2nc(N3C4CCC3COC4)nc(-c3ccc(NC(=O)OCCO)cc3)c2C1=O [Example 65, {4-[6-Ethyl-8,8-dimethyl-2-(3-oxa-8-azabicyclo[3.2.1]oct-8-yl)-5-oxo-5,6,7,8-tetrahydro-9-oxa-1,3,6-triazabenzocyclohepten-4-yl]phenyl}carbamic acid 2-hydroxyethyl ester] | 0.027 | 22.4 | 0.257 | 27
Cc1ccc(NC(=O)Nc2ccc(-c3nc(N4CC5CCC(C4)O5)nc4c3C(=O)N(C)CC(C)(C)O4)cc2F)cn1 [Example 66, 1-{2-Fluoro-4-[6,8,8-trimethyl-2-(8-oxa-3-azabicyclo[3.2.1]oct-3-yl)-5-oxo-5,6,7,8-tetrahydro-9-oxa-1,3,6-triazabenzocyclohepten-4-yl]phenyl}-3-(6-methylpyridin-3-yl)urea] | 0.016 | 2.95 | 0.071 | 21
Cc1ccc(NC(=O)Nc2ccc(-c3nc(N4C5CCC4COC5)nc4c3C(=O)N(C)CC(C)(C)O4)cc2F)cn1 [Example 67, 1-{2-Fluoro-4-[6,8,8-trimethyl-2-(3-oxa-8-azabicyclo[3.2.1]oct-8-yl)-5-oxo-5,6,7,8-tetrahydro-9-oxa-1,3,6-triazabenzocyclohepten-4-yl]phenyl}-3-(6-methylpyridin-3-yl)urea] | 0.015 | >10 | 0.069 | 20
CN1CC(C)(C)Oc2nc(N3C4CCC3COC4)nc(-c3ccc(NC(=O)Nc4ccncc4)cc3)c2C1=O [Example 68, 1-Pyridin-4-yl-3-{4-[6,8,8-trimethyl-2-(3-oxa-8-azabicyclo[3.2.1]oct-8-yl)-5-oxo-5,6,7,8-tetrahydro-9-oxa-1,3,6-triazabenzocyclohepten-4-yl]phenyl}urea] | 0.012 | 1.36 | 0.082 | 16
CN1CC(C)(C)Oc2nc(N3CC4CCC(C3)O4)nc(-c3ccc(NC(=O)Nc4ccncc4)cc3)c2C1=O [Example 69, 1-Pyridin-4-yl-3-{4-[6,8,8-trimethyl-2-(8-oxa-3-azabicyclo[3.2.1]oct-3-yl)-5-oxo-5,6,7,8-tetrahydro-9-oxa-1,3,6-triazabenzocyclohepten-4-yl]phenyl}urea] | 0.006 | 0.472 | 0.079 | 35
COc1ccnc(NC(=O)Nc2ccc(-c3nc(N4C5CCC4COC5)nc4c3C(=O)N(C)CC(C)(C)O4)cc2)c1 [Example 70, 1-(4-Methoxypyridin-2-yl)-3-{4-[6,8,8-trimethyl-2-(3-oxa-8-azabicyclo[3.2.1]oct-8-yl)-5-oxo-5,6,7,8-tetrahydro-9-oxa-1,3,6-triazabenzocyclohepten-4-yl]phenyl}urea] | 0.027 | >10 | 0.288 | 40
CCN1CC(C)(C)Oc2nc(N3CC4CCC(C3)O4)nc(-c3ccc(NC(=O)Nc4ccncc4)cc3F)c2C1=O [Example 71, 1-{4-[6-Ethyl-8,8-dimethyl-2-(8-oxa-3-azabicyclo[3.2.1]oct-3-yl)-5-oxo-5,6,7,8-tetrahydro-9-oxa-1,3,6-triazabenzocyclohepten-4-yl]-3-fluorophenyl}-3-pyridin-4-ylurea] | 0.021 | >10 | 0.209 | 59
CCN1CC(C)(C)Oc2nc(N3CC4CCC(C3)O4)nc(-c3ccc(NC(=O)Nc4ccc(N5CCC(O)C5)cn4)cc3)c2C1=O (stereo not drawn) [Example 72, 1-{4-[6-Ethyl-8,8-dimethyl-2-(8-oxa-3-azabicyclo[3.2.1]oct-3-yl)-5-oxo-5,6,7,8-tetrahydro-9-oxa-1,3,6-triazabenzocyclohepten-4-yl]phenyl}-3-[5-(3-hydroxypyrrolidin-1-yl)pyridin-2-yl]urea] | 0.023 | >10 | 0.498 | 58
C[C@H]1COCCN1c1ccc(NC(=O)Nc2ccc(-c3nc(N4CC5CCC(C4)O5)nc4c3C(=O)N(C)CC(C)(C)O4)cc2F)cn1 [Example 73, 1-{2-Fluoro-4-[6,8,8-trimethyl-2-(8-oxa-3-azabicyclo[3.2.1]oct-3-yl)-5-oxo-5,6,7,8-tetrahydro-9-oxa-1,3,6-triazabenzocyclohepten-4-yl]phenyl}-3-[6-((S)-3-methylmorpholin-4-yl)pyridin-3-yl]urea] | 0.071 | 5.91 | 0.119 | 48
C[C@H]1COCCN1c1ccc(NC(=O)Nc2ccc(-c3nc(N4C5CCC4COC5)nc4c3C(=O)N(C)CC(C)(C)O4)cc2F)cn1 [Example 74, 1-{2-Fluoro-4-[6,8,8-trimethyl-2-(3-oxa-8-azabicyclo[3.2.1]oct-8-yl)-5-oxo-5,6,7,8-tetrahydro-9-oxa-1,3,6-triazabenzocyclohepten-4-yl]phenyl}-3-[6-((S)-3-methylmorpholin-4-yl)pyridin-3-yl]urea] | 0.064 | >10 | 0.126 | 31
CCN1CC(C)(C)Oc2nc(N3[C@@H]4CC[C@H]3COC4)nc(-c3ccc(NC(=O)Nc4ccncc4F)cc3)c2C1=O [Example 75, 1-[4-((1S,5R)-6-Ethyl-8,8-dimethyl-2-3-oxa-8-azabicyclo[3.2.1]oct-8-yl-5-oxo-5,6,7,8-tetrahydro-9-oxa-1,3,6-triazabenzocyclohepten-4-yl)phenyl]-3-(3-fluoropyridin-4-yl)urea] | 0.04 | 5.57 | 0.047 | 8
CCN1CC(C)(C)Oc2nc(N3CC4CCC(C3)O4)nc(-c3ccc(NC(=O)Nc4ccncc4F)c(F)c3)c2C1=O [Example 76] | 0.028 | 2.36 | 0.367 | 29
CCN1CC(C)(C)Oc2nc(N3CC4CCC(C3)O4)nc(-c3ccc(NC(=O)Nc4ccc(OC5CCOC5)cc4)c(F)c3)c2C1=O (stereo not drawn) [Example 77, 1-{4-[6-Ethyl-8,8-dimethyl-2-(8-oxa-3-azabicyclo[3.2.1]oct-3-yl)-5-oxo-5,6,7,8-tetrahydro-9-oxa-1,3,6-triazabenzocyclohepten-4-yl]-2-fluorophenyl}-3-[4-(tetrahydrofuran-3-yloxy)phenyl]urea] | 0.056 | 4.49 | 0.053 | 16
CCN1CC(C)(C)Oc2nc(N3CC4CCC(C3)O4)nc(-c3ccc(NC(=O)Nc4ccnc(N(C)C)c4)c(F)c3)c2C1=O [Example 78, 1-(2-Dimethylaminopyridin-4-yl)-3-{4-[6-ethyl-8,8-dimethyl-2-(8-oxa-3-azabicyclo[3.2.1]oct-3-yl)-5-oxo-5,6,7,8-tetrahydro-9-oxa-1,3,6-triazabenzocyclohepten-4-yl]-2-fluorophenyl}urea] | 0.09 | 6.26 | 0.083 | 28
